Experimental data as given in ChEMBL document CHEMBL1127693, “Novel isoxazoles which interact with brain cholinergic channel receptors have intrinsic cognitive enhancing and anxiolytic activities” (J Med Chem, 1994).

Tests used:
[1] = Binding affinity at CCR was determined by displacement of [3H]nicotine from rat brain; format: tissue-based
[2] = Binding affinity at CCR was determined by displacement of [125I]- alpha-BgT from Torpedo californica electroplax; design: species or system Tetronarce californica
[3] = Binding affinity at CCR was determined by displacement of [125I]- alpha-BgT from rat brain; format: tissue-based
[4] = Binding affinity at CCR was determined by displacement of [3H]cytisine from rat brain; format: tissue-based
[5] = target: Muscarinic acetylcholine receptor (Rattus norvegicus); experiment: Binding affinity at muscarinic receptor was determined by displacement of [3H]OXO-M from rat brain

Row | SMILES | Ki [1] [nM] | Ki [2] [nM] | Ki [3] [nM] | Ki [4] [nM] | Ki [5] [nM]
1 | CN1CCC[C@H]1c1cccnc1 [NICOTINE] | 1.4 |  |  |  | 
2 | c1cncc([C@@H]2CCCN2)c1 [NORNICOTINE] | 56 | 11000 |  |  | 
3 | Cc1cc([C@@H]2CCCN2)on1 |  | > 20000 | > 20000 | 333 | > 20000
4 | Cc1cc([C@H]2CCCN2)on1 |  | 3400 | > 20000 | 7.4 | 8000
5 | c1cncc([C@H]2CCCN2)c1 | 41 | 300 |  |  | 
6 | CN1CCC[C@@H]1c1cccnc1 [R-NICOTINE] | 32 |  |  |  | 
7 | Cc1cc([C@H]2CCCN2C)on1 |  |  |  | 44 | 
